According to US20250101062A1, “ANTIMICROBIAL PEPTIDES” (Board of Regents of the University of Nebraska, priority 2023, published 2025):
Values after ≈ are worked out from the molar mass of the structure shown. Where no end group is shown, it is not given here.

Columns and labels:
K. pneumoniae E406-17 = type: cell-based, Klebsiella pneumoniae
Procedure, shortened: (§1)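 Peptides twofold serially diluted against exponential-phase resistant clinical isolates at ~10^5 CFU/mL in MHB (also diluted MHB, TSB or LB in one protocol), CLSI-based broth microdilution. Incubated overnight at 37° C., OD 600 nm read; MIC taken as lowest concentration without growth, reported as ranges.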

chymotrypsin = target: T1, chymotrypsin (Bos taurus, UniProt P00766); type: in vitro ADME, mammalian
T1 construct: purchased Thermo Fisher Scientific
Procedure: A solution of peptide/protease (40:1 molar ratio) was made in phosphate-buffered saline (PBS; pH 7.1, Gibco, NY) and incubated at 37° C. for 1 hour. As controls, peptides without proteases were also incubated in the same manner. Then, aliquots of 10 μL were transferred to a 96-well polystyrene microplate and mixed with the exponential-phase MRSA USA300 culture as performed in the antibacterial activity assays above.

A. baumannii B28-16 = type: cell-based, Acinetobacter baumannii; conditions: B28-16
Procedure, shortened: as §1

MRSA USA300 = assay: Inhibition of bacterial attachment; type: cell-based, Staphylococcus aureus; conditions: Example 1, 4× and 8×MIC
Procedure: Inhibition of Bacterial Attachment. Bacterial attachment is the initial step for biofilm formation. For this experiment, an overnight culture of MRSA USA300 was grown overnight in TSB media to an optical density (OD600) of ˜1.0. […] The plates were then incubated at 37° C. for 1 hour. Next, the medium was aspirated and washed with 1×PBS, and 200 μL of TSB containing XTT 10% [2,3-bis(2-methyloxy-4-nitro-5-sulfophenyl)-2H-tertazolium-5-carboxanilide](ATCC, VA) solution was added. After incubation at 37° C. for 2 hours, absorbance was read at 450 nm using a ChroMate™ microtiter plate reader. TSB containing 10% XTT served as a blank, while bacterial culture treated with water served as a positive control. Percentages of viable cells in biofilms were plotted by assuming 100% growth in water treated control.
Bacterial attachment was conducted (Mishra, et al. (2016) ACS Med. Chem. Lett., 77(1):117-121; Duplantier, et al. (2013) Front. Immunol., 4: 143). In brief, an overnight culture of MRSA USA300 or P. aeruginosa E411-17 was grown overnight in TSB media to an optical density (OD600) of ˜1.0. […] The plates were then incubated at 37° C. for 1 hour. […] After incubation at 37° C. for 2 hours, absorbance was read at 450 nm using a ChroMate® microtiter plate reader. […]

E. coli E423-17 = assay: Membrane depolarization (DiBAC4(3)); type: cell-based, Escherichia coli; conditions: Example 1
S. epidermidis 1457 = assay: microbe, parasite or virus in culture; type: cell-based, Staphylococcus epidermidis; conditions: Staphylococcus epidermidis, MHB, Table 8, read-out: Antimicrobial activity (MIC) S. epidermidis 1457
Procedure, shortened: as §1

[1] = Effect of MHB dilution on antibacterial activity of a panel of antibiotics; type: cell-based; conditions: MHB from 100 to 12.5%

| Compound | Activity (MIC) K. pneumoniae (K. pneumoniae E406-17) [µM] | activity after protease incubation (chymotrypsin) | Activity (MIC) A. baumannii (A. baumannii B28-16) [µM] | anti-attachment ability (MRSA USA300) | membrane depolarization (E. coli E423-17) | MIC (S. epidermidis 1457) [µM] | change in MIC with dilution of MHB [1] |
| --- | --- | --- | --- | --- | --- | --- | --- |
| RRWWRWWR-NH2 [W543] | >32 | started to lose activity | >32 | did not show anti-attachment ability | some depolarization |  |  |
| CCCCCCCCCC(=O)N[C@@H](Cc1c[nH]c2ccccc12)C(=O)N[C@H](CC(N)=O)C(=O)N[C@@H](CC(=O)O)C(=O)N[C@@H]1C(=O)NCC(=O)N[C@@H](CCCN)C(=O)N[C@@H](CC(=O)O)C(=O)N[C@H](C)C(=O)N[C@@H](CC(=O)O)C(=O)NCC(=O)N[C@H](CO)C(=O)N[C@@H]([C@H](C)CC(=O)O)C(=O)N[C@@H](CC(=O)c2ccccc2N)C(=O)O[C@@H]1C [Daptomycin] |  |  |  |  |  | 0.5 to 1 (≈ 0.81 to 1.62 µg/mL) | essentially no changes |
